Data: patent US7030145B2, “Pyridinyl derivatives for the treatment of depression” (Bristol-Myers Squibb Company, priority 2003, dated 2006)
pKi: −log10 of the molar value.

molecular target: T1, cloned human CRF-R1 receptors (Homo sapiens, UniProt P34998); experiment: CRF-R1 receptor binding assay (inhibition of 125I-ovine-CRF binding to cell membranes); settings: membranes of 293EBNA cells transfected with hCRFR1, class d = reported as percent inhibition at 10 μM, figures not given, read-out: activity (Ki class in the CRF assays)
T1 construct: the coding region was amplifies by PCR from start to stop codons; expressed in transfected cells; membranes
T1 sequence (P34998 24-415): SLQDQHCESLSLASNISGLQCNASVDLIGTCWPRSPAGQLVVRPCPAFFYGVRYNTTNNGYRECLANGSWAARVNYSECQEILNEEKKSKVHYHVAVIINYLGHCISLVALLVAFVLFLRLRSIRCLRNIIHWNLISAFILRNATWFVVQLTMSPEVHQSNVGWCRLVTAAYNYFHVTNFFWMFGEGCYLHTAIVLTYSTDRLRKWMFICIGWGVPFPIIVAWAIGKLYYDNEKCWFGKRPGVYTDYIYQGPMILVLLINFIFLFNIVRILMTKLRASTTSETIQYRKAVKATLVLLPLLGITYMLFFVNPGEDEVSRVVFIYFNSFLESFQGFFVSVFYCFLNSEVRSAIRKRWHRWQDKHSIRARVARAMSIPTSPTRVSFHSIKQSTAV
Description: The following is a description of the isolation of cell membranes containing cloned human CRF-R1 receptors for use in a standard binding assay as well as a description of the assay itself.
Messenger RNA was isolated from human hippocampus. […]. The mRNA was reverse transcribed using oligo (dt) 12–18 and the coding region was amplifies by PCR from start to stop codons. The resulting PCR fragment was cloned into the EcoRV site of pGEMV, from whence the insert was reclaimed using XhoI+XbaI and cloned into the XhoI+XbaI sites of vector pm3 as (which contains a CMV promoter, the SV′t′ splice and early poly A signals, an Eptein-Barr viral origin of replication, and a hygromycin selectable marker). The resulting expression vector, called phchCRFR was transfected in 293EBNA cells and cells retaining the episome were selected in the presence of […] hygromycin. Cells surviving 4 weeks of selection in hygromycin were pooled, adapted to growth in suspension and used to generate membranes for the binding assay described below. Individual aliquots containing approximately 1×10^8 of the suspended cells were then centrifuged to form a pellet and frozen. For the binding assay a frozen pellet described above containing 293EBNA cells transfected with hCRFR1 receptors is homogenized in 10 mL of ice cold tissue buffer (50 mM HEPES buffer pH 7.0, containing 10 MM MgCl2, 2 mM EGTA, 1 μg/mL apotinin, 1 μg/mL leupeptin and 1 μg/mL pepstatin). The homoginate is centrifuged at 40,000×g for 12 min and the resulting pellet rehomogenized in 10 mL of tissue buffer. After another centrifugation at 40,000×g for 12 min, the pellet is resuspended to a protein concentration of 360 μg/mL to be used in the assay.
Binding assays are performed in 96 well plates; each well having a 300 μL capacity. To each well is added 50 μL of test drug dilutions (final concentration of drugs range from 10^−10–10^−5 M), 100 μL of ^125I-ovine-CRF (^125I-o-CRF) (final concentration 150 pM) and 150 μL of the cell homoginate described above. Plates are then allowed to incubate at room temperature for 2 hours before filtering the incubate over GF/F filters (presoaked with 0.3% polyethyleneimine) using an appropriate cell harvester. Filters are rinsed 2 times with ice cold assay buffer before removing individual filters and assessing them for radioactivity on a gamma counter.
Curves of the inhibition of ^125I-o-CRF binding to cell membranes at various dilutions of test drug are analyzed by the iterative curve fitting program LIGAND [P. J. Munson and D. Rodbard, Anal. Biochem., 107:220 (1980), which provides Ki values for inhibition which are then used to assess biological activity. […]
Messenger RNA was isolated from human hippocampus. The mRNA was isolated from human hippocampus. The mRNA was reverse transcribed using oligo (dt) 12–18 and the coding region was amplifies by PCR from start to stop codons. The resulting PCR fragment was cloned into the EcoRV site of pGEMV, from whence the insert was reclaimed using XhoI+XbaI and cloned into the XhoI+XbaI sites of vector pm3 as (which contains a CMV promoter, the SV′t′ splice and early poly A signals, an Eptein-Barr viral origin of replication, and a hygromycin selectable marker). The resulting expression vector, called phchCRFR was transfected in 293EBNA cells and cells retaining the episome were selected in the presence of […] hygromycin. Cells surviving 4 weeks of selection in hygromycin were pooled, adapted to growth in suspension and used to generate membranes for the binding assay described below. […]
A frozen pellet described above containing 293EBNA cells transfected with hCRFR1 receptors or the rat frontal cortex tissue dissected from frozen rat brains was prepared as the source of membranes expressing CRF1 receptors used in binding assays. […]

`C#Cc1ccc(S(=O)(=O)c2ccc(C)nc2Nc2c(C)cc(C)cc2C)cc1` [Example 47, [3-(4-Ethynylbenzenesulfonyl)-6-methylpyridin-2-yl]-(2,4,6-trimethylphenyl)-amine] and `Cc1cc(C)c(Nc2nc(C)ccc2S(=O)(=O)c2ccc(F)cc2)c(C)c1` [Example 45, [3-(4-Fluorobenzenesulfonyl)-6-methylpyridin-2-yl]-(2,4,6-trimethylphenyl)-amine] cannot be ordered by pKi: ≥ 7.00 for the first, 6.30 to 7.00 for the second.

`Cc1cc(C)c(Nc2nc(C)ccc2S(=O)(=O)c2ccc(-c3ccccc3)cc2)c(C)c1` [Example 48, [3-(Biphenyl-4-sulfonyl)-6-methylpyridin-2-yl]-(2,4,6-trimethylphenyl)-amine] and `Cc1cc(C)c(Nc2nc(C)ccc2S(=O)(=O)c2ccc(C(O)c3ccccc3)cc2)c(C)c1` (stereo not shown) [Example 53, {4-[6-Methyl-2-(2,4,6-trimethylphenylamino)-pyridine-3-sulfonyl]-phenyl}-phenyl-methanol] cannot be ordered by pKi: ≥ 7.00 for the first, 6.30 to 7.00 for the second.

`Cc1cc(C)c(Nc2nc(C)ccc2S(=O)(=O)c2ccc(OC(F)(F)F)cc2)c(C)c1` [Example 44, [6-Methyl-3-(4-trifluoromethoxybenzenesulfonyl)-pyridin-2-yl]-(2,4,6-trimethylphenyl)-amine] and `CCc1ccc(S(=O)(=O)c2ccc(C)nc2Nc2c(C)cc(C)cc2C)cc1` [Example 42, [3-(4-Ethylbenzenesulfonyl)-6-methylpyridin-2-yl]-(2,4,6-trimethylphenyl)-amine] cannot be ordered by pKi: 6.30 to 7.00 for the first, ≥ 7.00 for the second.

`CCc1ccc(S(=O)(=O)c2ccc(C)nc2Nc2cc(C)c(C)cc2C)cc1` [Example 70, [3-(4-Ethylbenzenesulfonyl)-6-methylpyridin-2-yl]-(2,4,5-trimethylphenyl)-amine] and `CCc1ccc(S(=O)(=O)c2ccc(C)nc2Nc2ccc(OC)cc2C)cc1` [Example 67, [3-(4-Ethylbenzenesulfonyl)-6-methylpyridin-2-yl]-(4-methoxy-2-methylphenyl)-amine] cannot be ordered by pKi: ≥ 7.00 for the first, ≥ 7.00 for the second.

`Cc1cc(C)c(Nc2nc(C)ccc2S(=O)(=O)c2cccc(OCc3cc(Cl)nc(Cl)c3)c2)c(C)c1` [Example 65, {3-[3-(2,6-Dichloropyridin-4-ylmethoxy)-benzenesulfonyl]-6-methylpyridin-2-yl}-(2,4,6-trimethylphenyl)-amine] and `Cc1cc(C)c(Nc2nc(C)ccc2S(=O)(=O)c2cccc(OCc3ccc(Cl)nc3)c2)c(C)c1` [Example 64, {3-[3-(6-Chloropyridin-3-ylmethoxy)-benzenesulfonyl]-6-methylpyridin-2-yl}-(2,4,6-trimethylphenyl)-amine] fall in the same range of pKi: 6.30 to 7.00 for the first, 6.30 to 7.00 for the second.

`Cc1cc(C)c(Nc2nc(C)ccc2S(=O)(=O)c2cccc(OCc3ccc(F)cc3)c2)c(C)c1` [Example 61, {3-[3-(4-Fluorobenzyloxy)-benzenesulfonyl]-6-methylpyridin-2-yl}-(2,4,6-trimethylphenyl)-amine] and `Cc1cc(C)c(Nc2nc(C)ccc2S(=O)(=O)c2cccc(OCc3ccccc3)c2)c(C)c1` [Example 60, [3-(3-Benzyloxybenzenesulfonyl)-6-methylpyridin-2-yl]-(2,4,6-trimethylphenyl)-amine] fall in the same range of pKi: 6.30 to 7.00 for the first, 6.30 to 7.00 for the second.

`C=CCOc1cccc(S(=O)(=O)c2ccc(C)nc2Nc2c(C)cc(C)cc2C)c1` [Example 59, [3-(3-Allyloxybenzenesulfonyl)-6-methylpyridin-2-yl]-(2,4,6-trimethylphenyl)-amine] and `Cc1cc(C)c(Nc2nc(C)ccc2S(=O)(=O)c2ccc(CO)cc2)c(C)c1` [Example 50, {4-[6-Methyl-2-(2,4,6-trimethylphenylamino)-pyridine-3-sulfonyl]-phenyl}-methanol] fall in the same range of pKi: 6.30 to 7.00 for the first, 6.30 to 7.00 for the second.

Compared with `CCc1ccc(S(=O)(=O)c2ccc(C)nc2Nc2ccc(OC)cc2OC)cc1` [Example 68, (2,4-Dimethoxyphenyl)-[3-(4-ethylbenzenesulfonyl)-6-methylpyridin-2-yl]-amine], `COc1ccc(S(=O)(=O)c2ccc(C)nc2Nc2c(C)cc(C)cc2C)cc1OC` [Example 39, [3-(3,4-Dimethoxybenzenesulfonyl)-6-methylpyridin-2-yl]-(2,4,6-trimethylphenyl)-amine] is lower in pKi: 6.30 to 7.00 for the first, 5.30 to 6.30 for the second.
